Results on 16 compounds are retold here after patent US20240116985A1, “STAPLED PEPTIDES AND METHODS THEREOF” (priority 2020, published 2024).

One series is described as follows: CHI Log D procedure. It is filed as physicochemical. To be noted: pH 7.4.
Consider `CC(=O)N[C@@H](Cc1ccccc1)C(=O)N[C@@H](CC(=O)O)C(=O)N[C@@H](C)C(=O)N[C@]1(C)CCCCCCC=CCOC(=O)N2CC[C@@](C(=O)N[C@@H](Cc3ccccc3)C(=O)N[C@@H](Cc3c[nH]c4ccccc34)C(=O)N[C@@H](CCC(N)=O)C(N)=O)(C2)NC(=O)[C@H](C(C)C)NC(=O)[C@H](Cc2ccccc2)NC(=O)[C@H](C)NC(=O)[C@H](C)NC(=O)[C@H](CC2CCCCC2)NC(=O)[C@H](CC(=O)O)NC1=O` (single isomer, unassigned) [I-16, Ac-Phe-Asp-Ala-R8-Asp-Cha-Ala-Ala-Phe-Val-PyrS-Phe-Trp-Gln-NH2], for which the “CHI Log D” value came out at 2.21. Take `CC(=O)N[C@@H](Cc1ccccc1)C(=O)N[C@@H](CC(=O)O)C(=O)N[C@@H](C)C(=O)N[C@]1(C)CCCCCCC=CCOC(=O)N2CC[C@@](C(=O)N[C@@H](Cc3ccccc3)C(=O)N[C@@H](Cc3c[nH]c4ccccc34)C(=O)N[C@@H](CCC(N)=O)C(N)=O)(C2)NC(=O)[C@H](C(C)C)NC(=O)[C@H](Cc2ccccc2)NC(=O)[C@H](C)NC(=O)[C@H](C)NC(=O)[C@H](CCC(C)C)NC(=O)[C@H](CC(=O)O)NC1=O` (single isomer, unassigned) [I-18, Ac-Phe-Asp-Ala-R8-Asp-hLeu-Ala-Ala-Phe-Val-PyrS-Phe-Trp-Gln-NH2]: the “CHI Log D” value amounted to 2.108. Take `CC(=O)N[C@@H](Cc1ccccc1)C(=O)N[C@@H](CC(=O)O)C(=O)N[C@@H](C)C(=O)N[C@]1(C)CCCCCCC=CCOC(=O)N2CC[C@@](C(=O)N[C@@H](Cc3ccccc3)C(=O)N[C@@H](Cc3c[nH]c4ccccc34)C(=O)N[C@@H](CCC(N)=O)C(N)=O)(C2)NC(=O)[C@H](C(C)C)NC(=O)[C@H](Cc2ccccc2)NC(=O)[C@H](CC(=O)O)NC(=O)[C@H](C)NC(=O)[C@H](CC(=O)O)NC(=O)[C@H](CC(=O)O)NC1=O` (single isomer, unassigned) [I-20, Ac-Phe-Asp-Ala-R8-Asp-Asp-Ala-Asp-Phe-Val-PyrS-Phe-Trp-Gln-NH2]: the “CHI Log D” value was 0.935. As for `CC(=O)N[C@@H](Cc1ccccc1)C(=O)N[C@@H](CC(=O)O)C(=O)N[C@@H](C)C(=O)N[C@]1(C)CCCCCCC=CCOC(=O)N2CC[C@@](C(=O)N[C@@H](Cc3ccccc3)C(=O)N[C@@H](Cc3c[nH]c4ccccc34)C(=O)N[C@@H](CCC(N)=O)C(N)=O)(C2)NC(=O)[C@H](C(C)C)NC(=O)[C@H](Cc2ccccc2)NC(=O)[C@H](CCC(=O)O)NC(=O)[C@H](C)NC(=O)[C@H](CC(=O)O)NC(=O)[C@H](CC(=O)O)NC1=O` (single isomer, unassigned) [I-22, Ac-Phe-Asp-Ala-R8-Asp-Asp-Ala-Glu-Phe-Val-PyrS-Phe-Trp-Gln-NH2], the “CHI Log D” value is recorded as 0.911. As to `CC(=O)N[C@@H](Cc1ccccc1)C(=O)N[C@@H](CC(=O)O)C(=O)N[C@@H](C)C(=O)N[C@]1(C)CCCCCCC=CCOC(=O)N2CC(C(=O)N[C@@H](Cc3ccccc3)C(=O)N[C@@H](Cc3c[nH]c4ccccc34)C(=O)N[C@@H](CCC(N)=O)C(N)=O)(C2)NC(=O)[C@H](C(C)C)NC(=O)[C@H](Cc2ccccc2)NC(=O)[C@H](C)NC(=O)[C@H](C)NC(=O)[C@H](CC(=O)O)NC(=O)[C@H](CC(=O)O)NC1=O` (single isomer, unassigned) [I-40, Ac-Phe-Asp-Ala-R8-Asp-Asp-Ala-Ala-Phe-Val-Az-Phe-Trp-Gln-NH2], the “CHI Log D” value is recorded as 1.243. With `CC(=O)N[C@@H](Cc1ccccc1)C(=O)N[C@@H](CC(=O)O)C(=O)N[C@@H](C)C(=O)N[C@]1(C)CN(C)C(=O)OCC=CCCCCCC[C@@](C)(C(=O)N[C@@H](Cc2ccccc2)C(=O)N[C@@H](Cc2c[nH]c3ccccc23)C(=O)N[C@@H](CCC(N)=O)C(N)=O)NC(=O)[C@H](C(C)C)NC(=O)[C@H](Cc2ccccc2)NC(=O)[C@H](C)NC(=O)[C@H](C)NC(=O)[C@H](CC(=O)O)NC(=O)[C@H](CC(=O)O)NC1=O` (single isomer, unassigned) [I-44, Ac-Phe-Asp-Ala-RgN-Asp-Asp-Ala-Ala-Phe-Val-S8-Phe-Trp-Gln-NH2], the “CHI Log D” value is 1.312. Turning to `CC(=O)N[C@@H](Cc1ccccc1)C(=O)N[C@@H](CC(=O)O)C(=O)N[C@@H](C)C(=O)N[C@]1(C)CN(C)C(=O)OCC=CCCCCC[C@@](C)(C(=O)N[C@@H](Cc2ccccc2)C(=O)N[C@@H](Cc2c[nH]c3ccccc23)C(=O)N[C@@H](CCC(N)=O)C(N)=O)NC(=O)[C@H](C(C)C)NC(=O)[C@H](Cc2ccccc2)NC(=O)[C@H](C)NC(=O)[C@H](C)NC(=O)[C@H](CC(=O)O)NC(=O)[C@H](CC(=O)O)NC1=O` (single isomer, unassigned) [I-46, Ac-Phe-Asp-Ala-RgN-Asp-Asp-Ala-Ala-Phe-Val-S7-Phe-Trp-Gln-NH2], the “CHI Log D” value is listed as 1.205.

Staying with this series, now noted: pH 7.4, CHI Log D.
As a reminder, the chromatographic logD is lipophilicity estimated from chromatographic retention. Read a high chromatographic logD as a more lipophilic compound. As for `CC(=O)N[C@@H](Cc1ccccc1)C(=O)N[C@@H](CC(=O)O)C(=O)N[C@@H](C)C(=O)N[C@]1(C)CCCCCCC=CCOC(=O)N2CC[C@@](C(=O)N[C@@H](Cc3ccccc3)C(=O)N[C@@H](Cc3c[nH]c4ccccc34)C(=O)N[C@@H](CCC(N)=O)C(N)=O)(C2)NC(=O)[C@H](C(C)C)NC(=O)[C@H](Cc2ccccc2)NC(=O)[C@H](C)NC(=O)[C@H](C)NC(=O)[C@H](CC2CCCCC2)NC(=O)[C@H](CC(=O)O)NC1=O` (single isomer, unassigned) [I-15, Ac-Phe-Asp-Ala-R8-Asp-Cha-Ala-Ala-Phe-Val-PyrS-Phe-Trp-Gln-NH2], the chromatographic logD was 2.21.

`CC(=O)N[C@@H](Cc1ccccc1)C(=O)N[C@@H](CC(=O)O)C(=O)N[C@@H](C)C(=O)N[C@]1(C)CCCCCCC=CCOC(=O)N2CC[C@@](C(=O)N[C@@H](Cc3ccccc3)C(=O)N[C@@H](Cc3c[nH]c4ccccc34)C(=O)N[C@@H](CCC(N)=O)C(N)=O)(C2)NC(=O)[C@H](C(C)C)NC(=O)[C@H](Cc2ccccc2)NC(=O)[C@H](C)NC(=O)[C@H](C)NC(=O)[C@H](CCC(C)C)NC(=O)[C@H](CC(=O)O)NC1=O` (single isomer, unassigned) [I-17, Ac-Phe-Asp-Ala-R8-Asp-hLeu-Ala-Ala-Phe-Val-PyrS-Phe-Trp-Gln-NH2] came in with a chromatographic logD of 2.1. On to `CC(=O)N[C@@H](Cc1ccccc1)C(=O)N[C@@H](CC(=O)O)C(=O)N[C@@H](C)C(=O)N[C@]1(C)CCCCCCC=CCOC(=O)N2CC[C@@](C(=O)N[C@@H](Cc3ccccc3)C(=O)N[C@@H](Cc3c[nH]c4ccccc34)C(=O)N[C@@H](CCC(N)=O)C(N)=O)(C2)NC(=O)[C@H](C(C)C)NC(=O)[C@H](Cc2ccccc2)NC(=O)[C@H](CC(=O)O)NC(=O)[C@H](C)NC(=O)[C@H](CC(=O)O)NC(=O)[C@H](CC(=O)O)NC1=O` (single isomer, unassigned) [I-19, Ac-Phe-Asp-Ala-R8-Asp-Asp-Ala-Asp-Phe-Val-PyrS-Phe-Trp-Gln-NH2], for which the chromatographic logD was determined as 0.948.

`CC(=O)N[C@@H](Cc1ccccc1)C(=O)N[C@@H](CC(=O)O)C(=O)N[C@@H](C)C(=O)N[C@]1(C)CCCCCCC=CCOC(=O)N2CC[C@@](C(=O)N[C@@H](Cc3ccccc3)C(=O)N[C@@H](Cc3c[nH]c4ccccc34)C(=O)N[C@@H](CCC(N)=O)C(N)=O)(C2)NC(=O)[C@H](C(C)C)NC(=O)[C@H](Cc2ccccc2)NC(=O)[C@H](CCC(=O)O)NC(=O)[C@H](C)NC(=O)[C@H](CC(=O)O)NC(=O)[C@H](CC(=O)O)NC1=O` (single isomer, unassigned) [I-21, Ac-Phe-Asp-Ala-R8-Asp-Asp-Ala-Glu-Phe-Val-PyrS-Phe-Trp-Gln-NH2] gave a chromatographic logD of 0.92. Compound `CC(=O)N[C@@H](Cc1ccccc1)C(=O)N[C@@H](CC(=O)O)C(=O)N[C@@H](C)C(=O)N[C@]1(C)CCCN(C)C(=O)OCC=CCCCC[C@@](C)(C(=O)N[C@@H](Cc2ccccc2)C(=O)N[C@@H](Cc2c[nH]c3ccccc23)C(=O)N[C@@H](CCC(N)=O)C(N)=O)NC(=O)[C@H](C(C)C)NC(=O)[C@H](Cc2ccccc2)NC(=O)[C@H](C)NC(=O)[C@H](C)NC(=O)[C@H](CC(=O)O)NC(=O)[C@H](CC(=O)O)NC1=O` (single isomer, unassigned) [I-29, Ac-Phe-Asp-Ala-ReN-Asp-Asp-Ala-Ala-Phe-Val-S6-Phe-Trp-Gln-NH2] displayed a chromatographic logD of 1.6. Take `CC(=O)N[C@@H](Cc1ccccc1)C(=O)N[C@@H](CC(=O)O)C(=O)N[C@@H](C)C(=O)N[C@]1(C)CCCCCCC=CCOC(=O)N2CC(C(=O)N[C@@H](Cc3ccccc3)C(=O)N[C@@H](Cc3c[nH]c4ccccc34)C(=O)N[C@@H](CCC(N)=O)C(N)=O)(C2)NC(=O)[C@H](C(C)C)NC(=O)[C@H](Cc2ccccc2)NC(=O)[C@H](C)NC(=O)[C@H](C)NC(=O)[C@H](CC(=O)O)NC(=O)[C@H](CC(=O)O)NC1=O` (single isomer, unassigned) [I-39, Ac-Phe-Asp-Ala-R8-Asp-Asp-Ala-Ala-Phe-Val-Az-Phe-Trp-Gln-NH2]: the chromatographic logD amounted to 1.26. `CC(=O)N[C@@H](Cc1ccccc1)C(=O)N[C@@H](CC(=O)O)C(=O)N[C@@H](C)C(=O)N[C@]1(C)CCN(C)C(=O)OCC=CCC[C@@](C)(C(=O)N[C@@H](Cc2ccccc2)C(=O)N[C@@H](Cc2c[nH]c3ccccc23)C(=O)N[C@@H](CCC(N)=O)C(N)=O)NC(=O)[C@H](C(C)C)NC(=O)[C@H](Cc2ccccc2)NC(=O)[C@H](C)NC(=O)[C@H](C)NC(=O)[C@H](CC(=O)O)NC(=O)[C@H](CC(=O)O)NC1=O` (single isomer, unassigned) [I-41, Ac-Phe-Asp-Ala-RdN-Asp-Asp-Ala-Ala-Phe-Val-S4-Phe-Trp-Gln-NH2] returned a chromatographic logD of 1.09. Compound `CC(=O)N[C@@H](Cc1ccccc1)C(=O)N[C@@H](CC(=O)O)C(=O)N[C@@H](C)C(=O)N[C@]1(C)CN(C)C(=O)OCC=CCCCCCC[C@@](C)(C(=O)N[C@@H](Cc2ccccc2)C(=O)N[C@@H](Cc2c[nH]c3ccccc23)C(=O)N[C@@H](CCC(N)=O)C(N)=O)NC(=O)[C@H](C(C)C)NC(=O)[C@H](Cc2ccccc2)NC(=O)[C@H](C)NC(=O)[C@H](C)NC(=O)[C@H](CC(=O)O)NC(=O)[C@H](CC(=O)O)NC1=O` (single isomer, unassigned) [I-43, Ac-Phe-Asp-Ala-RgN-Asp-Asp-Ala-Ala-Phe-Val-S8-Phe-Trp-Gln-NH2] returned a chromatographic logD of 1.31. Same read-out and setting: the same measure for `CC(=O)N[C@@H](Cc1ccccc1)C(=O)N[C@@H](CC(=O)O)C(=O)N[C@@H](C)C(=O)N[C@]1(C)CN(C)C(=O)OCC=CCCCCC[C@@](C)(C(=O)N[C@@H](Cc2ccccc2)C(=O)N[C@@H](Cc2c[nH]c3ccccc23)C(=O)N[C@@H](CCC(N)=O)C(N)=O)NC(=O)[C@H](C(C)C)NC(=O)[C@H](Cc2ccccc2)NC(=O)[C@H](C)NC(=O)[C@H](C)NC(=O)[C@H](CC(=O)O)NC(=O)[C@H](CC(=O)O)NC1=O` (single isomer, unassigned) [I-45, Ac-Phe-Asp-Ala-RgN-Asp-Asp-Ala-Ala-Phe-Val-S7-Phe-Trp-Gln-NH2]: 1.21.
